Reference: PubChem BioAssay (NCI)
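Results reflect a 48-hour exposure of cells in 96-well plates to compound at five concentrations. At the TGI there is no net growth.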 Where a SMILES comes first, the peptide text is derived from it. The star is where a group is joined. Boc = CC(C)(C)OC(=O)*; OBn = c1ccc(CO*)cc1

Legend:
Assay in all cases: NCI tumour cell line growth inhibition, 48 h
HOP-92 NSCLC = test system: HOP-92 NSCLC
MOLT-4 leukemia = test system: MOLT-4 leukemia
SK-MEL-5 melanoma = test system: SK-MEL-5 melanoma
UACC-62 melanoma = test system: UACC-62 melanoma
CAKI-1 renal = test system: CAKI-1 renal
OVCAR-8 ovarian = test system: OVCAR-8 ovarian
A498 renal = test system: A498 renal
MALME-3M melanoma = test system: MALME-3M melanoma
MDA-MB-231 breast = test system: MDA-MB-231 breast
HCC-2998 colon = test system: HCC-2998 colon
TK-10 renal = test system: TK-10 renal
HS 578T breast = test system: HS 578T breast
SN12C renal = test system: SN12C renal
MDA-N = test system: MDA-N
PC-3 prostate = test system: PC-3 prostate
OVCAR-3 ovarian = test system: OVCAR-3 ovarian
NCI-H23 lung = test system: NCI-H23 lung
SNB-19 CNS = test system: SNB-19 CNS

SMILES | TGI (HOP-92 NSCLC) [µM] | TGI (MOLT-4 leukemia) [µM] | TGI (SK-MEL-5 melanoma) [µM] | TGI (UACC-62 melanoma) [µM] | TGI (CAKI-1 renal) [µM] | TGI (OVCAR-8 ovarian) [µM] | TGI (A498 renal) [µM] | TGI (MALME-3M melanoma) [µM] | TGI (MDA-MB-231 breast) [µM] | TGI (HCC-2998 colon) [µM] | TGI (TK-10 renal) [µM] | TGI (HS 578T breast) [µM] | TGI (SN12C renal) [µM] | TGI (MDA-N) [µM] | TGI (PC-3 prostate) [µM] | TGI (OVCAR-3 ovarian) [µM] | TGI (NCI-H23 lung) [µM] | TGI (SNB-19 CNS) [µM]
Cc1ccc(S(=O)(=O)Nn2c(S)c(C#N)c(-c3ccc([N+](=O)[O-])cc3)c(C#N)c2=O)cc1 | > 100 | 47.7 | 29.5 | 98.2 | > 100 | > 100 | > 100 | > 100 | 36.5 | > 100 | > 100 | 86.5 | 37.3 | 73.1 | > 100 |  |  | 
CC(NC(=O)C(Cc1ccccc1)NC(=O)C(Cc1ccccc1)NC(=O)OC(C)(C)C)C(=O)OCc1ccccc1 (stereo not drawn) (Boc-Phe-Phe-Ala-OBn; configuration not given here) | 81.2 | > 100 | > 100 | > 100 |  | > 100 | > 100 | > 100 | > 100 | > 100 | > 100 | > 100 | > 100 | > 100 | > 100 | > 100 | > 100 | 
CC(=O)N1N(c2ccc([N+](=O)[O-])cc2)C(=O)C1(C)C |  | 43.4 | 30.8 | 42.3 |  | 59 | > 100 | 56 | 45.7 | 29.7 | 36.2 | > 100 | 32.5 | > 100 | 32 | 40.5 | 37.8 | > 100
O=S(=O)(O)c1ccc2c(N=Nc3ccc(F)cc3)c(O)c(S(=O)(=O)O)cc2c1 | > 100 | > 100 | > 100 | > 100 | > 100 | > 100 | > 100 | > 100 | > 100 |  | > 100 | > 100 | > 100 | > 100 | > 100 | > 100 | > 100 | > 100
Nc1ncnc2c1cnn2Cc1cn(COCC(O)CO)nn1 (stereo not drawn) | > 100 |  | > 100 | > 100 | > 100 | > 100 | > 100 |  | > 100 | > 100 | > 100 | 32.8 | > 100 | > 100 | > 100 | > 100 | > 100 | > 100
COc1ccc(C(=O)/C=C/c2cccnc2)cc1OC | 26.7 | 14.1 | 27.4 | 28.4 | 15.7 | 18.6 | 27.8 | 28.5 | 23.8 |  | 29.1 | 49.6 | 18.3 | 25.6 | 28 | 11 | 22.9 | 27.6
Cc1ccc(-c2c(C#N)c(N)nc3c2CCS(=O)(=O)c2ccccc2-3)cc1 | > 100 |  | > 100 | > 100 | > 100 | > 100 | > 100 | > 100 | > 100 | > 100 | > 100 | > 100 | > 100 | > 100 | > 100 |  | > 100 | > 100
COC(=O)[C@@]12C(=O)C(C)C(=O)[C@]1(C)C(C)=C[C@H]1[C@]3(C=O)CC[C@H](OC(C)=O)C(C)(C)[C@H]3CC[C@@]12C (stereo partly drawn) | > 100 | 69.1 | > 100 | > 100 | > 100 | > 100 | > 100 | > 100 | > 100 | > 100 | > 100 | > 100 |  | > 100 | > 100 | > 100 | > 100 | > 100
O=C(NCCc1ccccc1)c1c(O)c2ccccc2[nH]c1=O | > 100 | > 100 | > 100 |  | > 100 | > 100 | > 100 | > 100 | > 100 | > 100 | > 100 | > 100 | > 100 | > 100 | > 100 | > 100 | > 100 | > 100
O=C(CCCN1CCC2(CC1)CC(=O)N(N1CCCCCC1)C2=O)c1ccc(F)cc1 |  | > 100 | > 100 | > 100 | > 100 | 34.7 | > 100 | > 100 | > 100 |  | > 100 | > 100 | > 100 | > 100 | > 100 | > 100 | > 100 | 
C=CCCCC1CCCNC1=S (stereo not drawn) | > 100 | > 100 | > 100 | > 100 | > 100 | > 100 | > 100 |  | > 100 | > 100 | > 100 | > 100 | > 100 | > 100 | > 100 | > 100 | > 100 | > 100
O=C(Cc1ccccc1)NCCCN(CCCCN(CCCNC(=O)Cc1ccccc1)C(=O)OCc1ccccc1)C(=O)OCc1ccccc1 | > 100 | > 100 | > 100 | > 100 |  | > 100 | > 100 |  | > 100 | > 100 | > 100 | > 100 | > 100 | > 100 | > 100 | > 100 | > 100 | 
Nc1nc(N)c2[nH]cnc2n1 (tested in a mixture with another compound) | > 100 | > 100 | 85.3 | 24.9 | > 100 | > 100 | 45.1 | > 100 | > 100 |  | 80.7 | > 100 | > 100 | > 100 | 94.6 | 74.4 | 77.5 | > 100
COC(=O)C1=C(C)NC(C)=C(C(=O)OC)C1c1cccc(NO)c1 | 23.8 |  | 29.4 | 34.3 | 26.1 | 30.2 | > 100 | 29.9 | 31.4 | > 100 | 27.7 | 64.4 | 32.9 | 28.5 | 30.4 | 29.5 | 33.8 | > 100
O=C1NC(=O)C(COCc2ccccc2)C2=C1SCCC2 (stereo not drawn) | > 100 | > 100 | > 100 |  | > 100 | > 100 | > 100 | > 100 | > 100 | > 100 |  | > 100 |  | > 100 | > 100 | > 100 | > 100 | > 100
CCOC(=O)C1(C/C=C\CBr)CCCCCCCCCCC1=O (stereo not drawn) |  | > 27 | 26.5 | 31.9 | 27.2 | 31.4 | 29.1 | 19.1 | 17.8 | 30.2 | 22.8 | 43.2 | 28.4 | 38.4 | 25.1 | 9.75 | 26.2 | 36.6
COc1cc2c(cc1OC)C(C)N(C)c1c-2c(OC(C)=O)cc2cc(OC)c(OC)cc12 (stereo not drawn) |  | > 100 | 15.8 | 39.3 | 49.5 | 33.2 | > 52.9 | 14.8 | 27.9 | > 60.1 | > 100 | > 57.1 | > 46.2 | 38.3 | > 90.8 | > 100 | 36.7 | > 100
CC1(C)OC(=O)C2(O1)C(=O)C1CCCCC12 (stereo not drawn) |  | > 100 | > 100 | > 100 | > 100 | > 100 | > 100 | > 100 | > 100 | > 100 | > 100 | > 100 | > 100 | > 100 | > 100 | > 100 | > 100 | > 100
CCCCCC[C@H]1C(=O)O[C@H](C)[C@H](NC(=O)c2cccc(NC=O)c2OC)C(=O)O[C@@H](C)[C@@H]1OC(=O)CC(C)C (tested in a mixture with another compound) | 81.2 | > 100 | 38.7 | > 100 | 57.3 | 30.4 | 47.2 | > 100 | 91.7 | > 100 | 50.8 | > 100 | > 100 | > 100 | > 100 | 22.5 | 48.3 | 
CCCCOCCOC1=CC(=O)c2c(O)ccc(O)c2C1=O | 4.44 | 9.38 | 0.422 | 2.98 | 3.23 |  | 3 | 0.738 | 3.85 | 3.3 | 4.8 | 4.99 | 3.03 | 0.341 | 6.69 | 3.04 | 3.17 | 3.12
CN(C)CCn1c(=O)c2ccc3c4c(nn3CCN(C)C)c3cc(O)ccc3n(c1=O)c24 |  | 0.127 | 0.787 | 0.585 | 0.291 | 0.124 | 0.83 | 0.982 | 0.727 | 0.176 | 0.837 | 0.373 | 0.842 | 0.603 | 2.98 | 0.842 | 0.701 | 1
Cc1ccc(S(=O)(=O)n2c3c(c4ccccc42)CCN2CCC(Br)C[C@@H]32)cc1 (stereo partly drawn) | 32.4 | 25.8 | 20.2 | 25.3 | 28.6 | 25.1 | 41 | 26.1 | 31.3 | 28.4 | 29.4 | 28.5 |  | 15.8 | 26.3 | 23.6 | 26.6 | 28.7
C/C(CC1SCCCS1)=C(/C)CC1SCCCS1 |  | > 100 | > 100 | > 100 | > 100 | > 100 | > 100 | > 100 | > 100 | > 100 | > 100 | > 100 | > 100 | > 100 | > 100 | > 100 | > 100 | > 100
CCOc1cc2c(cc1OC(C)=O)C(=O)CC[C@H]1C3CC[C@H](OC(C)=O)[C@@]3(C)CC[C@H]21 (stereo partly drawn) | > 100 | > 100 | > 100 | > 100 | > 100 | > 100 | > 100 | > 100 | > 100 | > 100 | > 100 | > 100 |  | > 100 | > 100 | > 100 | > 100 | > 100
COC(=O)C1(Cc2ccc3c(c2)CCC3)Cc2ccc3c(c2C1)CCC3 (stereo not drawn) | 98.1 | > 100 | 40.2 | > 100 | 79.2 | > 100 | 72.2 | 42 | 45 | > 100 | > 100 | 45 | 56.3 | 41 | 55.9 | 60.1 | 4.63 | 
O=C1[C@@H]2C[C@@H](O)CN2C(=O)c2ccccc2N1CCCO | > 100 | > 100 |  | > 100 |  | > 100 | > 100 |  | > 100 |  | > 100 | > 100 | > 100 | > 100 | > 100 | > 100 |  | > 100
Clc1nc(NCCc2ccccc2)c2ncn(-c3ccccc3)c2n1 |  | 51 | 32.5 | 56.7 | 34 | 90.6 | 41.9 | 52.4 | 62.8 | 45.5 | 71.2 | 76.7 | 85.4 | 40.2 | 47.8 | 82.2 | 77.3 | > 100
